Experimental findings from US7964191B2, “Compositions and methods for the treatment of ophthalmic disease” (Allergan, Inc., priority 2006, dated 2011) are described below.

This assay deals with diabetic retinopathy. Put plainly: Treatment of a patient with proliferative (left eye) and non-proliferative (right eye) diabetic retinopathy. It counts as in vivo, human. Conditions: Example 10. Here is the method: A person complains of vision loss in the left eye. The patient reports an onset of Type II diabetes, and has been under treatment with metformin hydrochloride for 10 years.
The patient is given an intravitreal injection comprising 150 μl of a solution of hyaluronic acid in which biodegradable PLGA microspheres (mean particle diameter of about 40 μm; lactide to glycolide ratio 75:25) are suspended. See U.S. patent application Ser. No. 11/368,845, filed Mar. 6, 2006, incorporated by reference herein in its entirety. Approximate weight of microspheres per dose was 20 mg. In addition to the PLGA polymer, the microspheres comprise approximately 5% by weight of an SDF-1α derivative that comprises a disulfide-linked dimer comprising two identical peptides, with each peptide comprising amino acids 1-9 of SDF-1 (these positions correspond to amino acids 22-47 of SEQ ID NO: 4, 5, and 6) with glycine substituted for proline in each position 2 (corresponding to position 23 of SEQ ID NO: 4, 5, and 6).
The patient's visual acuity (and retinal condition under dilation) are monitored every two weeks for 8 weeks.
The patient of Example 9 is treated by subconjunctival injection in each eye (100 μl volume in hyaluronic acid solution) of a single fibrous monolithic PLGA intraocular implant (approximately 120 μg; diameter approximately 3 mm) comprising 50% by weight of a CXCR4-inhibitory compound: N-[(S)-1-(1-naphthyl)ethyl]-5-(2-methylbenzyl)amino-2-(S)-[4-[N-(imidazole-2-ylmethyl)aminomethyl]benzoyl]aminopentanoylamide (see Yamzaki et al., U.S. Publication No. 2004/0254221.
After 8 weeks visual acuity is tested, and has improved by 2 lines in each eye.
The patient of Example 9 is administered an intravitreal injection in each eye comprising 150 μl of a solution of hyaluronic acid in which biodegradable PLGA microspheres (mean particle diameter of about 40 μm; lactide to glycolide ratio 75:25) are suspended. Approximate weight of microspheres per dose was 20 mg. […]

In the case of `Cc1ccccc1CNCCC[C@H](NC(=O)c1ccc(CNCc2ncc[nH]2)cc1)C(=O)N[C@@H](C)c1cccc2ccccc12` [N-[(S)-1-(1-naphthyl)ethyl]-5-(2-methylbenzyl)amino-2-(S)-[4-[N-(imidazole-2-ylmethyl)aminomethyl]benzoyl]aminopentanoylamide], for the setting “after 6 weeks”, the “fluorescein angiography: leakage of blood into the retina” value is given as “does not reveal any leakage of blood into the retina”. Further, the “improvement in visual acuity, each eye” value (after 8 weeks) was 2 lines. The macular edema result (subconjunctival PLGA implant, 50% by weight compound, each eye, after 6 weeks) is given as “barely observable”.
